This note sets out measurements from ChEMBL document CHEMBL3046226, “Novel glycol benzyl ether herbicides: Herbicidal activity of 3,3a,5,9b-tetrahydro-2H-furo[3,2-c][2]benzopyran derivatives” (2006).

By MIC is commonly meant the least concentration at which growth counts as inhibited. Low readings indicate a more susceptible organism, high ones a less susceptible organism.

Converted amounts (≈) assume the structure as drawn.

What all share (type): functional
In assay [1] the test system is Echinochloa crus-galli. The experiment in a line: Herbicidal activity against Echinochloa crus-galli (barnyard grass).
Assay [2] deals with Echinochloa crus-galli. Put plainly: Herbicidal activity against Echinochloa crus-galli (barnyard grass) assessed as growth rate at 3 g/acre.
In assay [3] the test system is Echinochloa crus-galli. Put plainly: Herbicidal activity against Echinochloa crus-galli (barnyard grass) assessed as growth rate at 30 g/acre.
Assay [4] deals with Oryza sativa. The experiment in a line: Phytotoxicity in Oryza sativa (rice) assessed as assessed as growth rate at 10 g/acre by Oryza sativa (rice) injury assay.
For assay [5], the system named is Oryza sativa. Put plainly: Phytotoxicity in Oryza sativa (rice) assessed as assessed as growth rate at 30 g/acre by Oryza sativa (rice) injury assay.
For assay [6], the system named is Echinochloa crus-galli. Put plainly: Herbicidal activity against Echinochloa crus-galli (barnyard grass) assessed as growth rate at 1 g/acre.

Turning to `CC[C@H]1O[C@@H]2c3sccc3COC2[C@H]1OCc1ccccc1C` (single isomer, unassigned), in the assay with Echinochloa crus-galli [1], the MIC is 0.1 µg/mL (≈ 0.303 µM). Also, the Activity is given as 0% in the assay on Echinochloa crus-galli [2]; 0% with Echinochloa crus-galli [3]; 91% in the assay on Oryza sativa [4]; 91% in the assay with Oryza sativa [5]; 6% in the assay on Echinochloa crus-galli [6].
In turn, `CC[C@H]1O[C@@H]2c3ccccc3CO[C@@H]2[C@H]1OCc1ccc2ccccc2c1` came in with an MIC with Echinochloa crus-galli [1] of more than 10 µg/mL. In addition, the Activity in the assay on Echinochloa crus-galli [2], in the assay with Echinochloa crus-galli [3], in the assay on Oryza sativa [4], in the assay with Oryza sativa [5] and in the assay on Echinochloa crus-galli [6] was 91% each time.
